Source: US20260262655A1, “INHIBITION OF SEED GERMINATION USING A COMBINATION OF BIOLOGICAL AND CHEMICAL INHIBITORS OF ETHYLENE” (Verdesian Life Sciences U.S., LLC, priority 2023, published 2026)
“And” between values parts separate entries of the source, which are not always exact repeats. Equal entries are not always repeated.

What was measured:
Format in all cases: in vivo
Tall Fescue = assay: Petri dish seed germination test on Tall Fescue; details: Tall Fescue seeds
Description: (§1) Place 10 seeds on moistened filter paper in 100 mm petri dishes, with three petri dishes per treatment. Using a pipette, apply 0.01 mL of the solution (water for controls, Pseudomonas for treated) evenly over the top surface of each seed. For the ethylene inhibitor treatment, place a small aluminum weigh boat containing 1 mL inhibitor solution in the petri dish. Ethylene inhibitor solution should be replaced daily. Cover seeds with another sheet of moistened filter paper before closing the petri dish. As needed, moisten the filter paper throughout the experiment with 1 mL of water at a time. Allow plants to germinate and grow for 11 days, removing the filter paper on day 5. Record the number of seeds germinated each day. Image analysis may be used at the end of the experiment to record total root and shoot growth.
(§2) Two species: Tall Fescue and Kentucky Bluegrass
(§3) Three timings of Pseudomonas fluorescens strain D7 application: 0, 3, and 7 days after planting
(§4) Four seed treatments: water (control), Pseudomonas fluorescens strain D7, 1-MCP, Pseudomonas fluorescens strain D7 and 1-MCP combination
(§5) Twelve seeds/petri dish (TF), 40 seeds/petri dish (KB)×3 petri dishes/treatment combination

Kentucky Bluegrass = assay: Petri dish seed germination test on Kentucky Bluegrass; details: Kentucky Bluegrass seeds
Description: as §1, §2, §3, §4, §5

[1] = test system: Cheatgrass, Bromus tectorum; assay: Petri dish seed germination test on cheatgrass, with Colby analysis; details: for %_Germ—14DAP: Petri Dish Run 1, germination at day 14; for %_Germ11DAP: Petri Dish Run 2, germination at day 11, repetitions R1-R3; for %_Germ_8DAP: germination at day 8, Run1 R0 and Run2 R1-R3
Description: as §1, with “containing lmL” for “containing 1 mL”
One species: Cheatgrass, Bromus tectorum
as §3, §4
Run 1: 12 seeds/dish, 1 petri dish/treatment combo
Run 2: 10 seeds/dish, 3 petri dishes/treatment combo
A Colby Analysis was carried out for the data obtained in Example 2. The first data set is shown in Table 1 below, where cheatgrass (Bromus tectorum) was treated with Pseudomonas fluorescens strain D7 (D7) and 1-methylcyclopropene (1-MCP) alone or in combination at days 0, 3, and 7 of the treatment period. The percentage of germination was then determined at day 14 of the treatment period.
The Colby equation is a standard method for determining the presence of synergy. The Colby equation is as follows:
[formula] • wherein X and Y are the effects of the active agents (e.g., Pseudomonas fluorescens strain D7 (D7) and 1-methylcyclopropene (1-MCP)) applied alone (expressed as % of control).
The standard Colby equation interpretation is: If Observed Value is greater than the Expected Value, synergy exists. However, based on the goal of reducing germination in this study, the appropriate interpretation here is: If the Observed Value is less than the Expected Value, synergy.

[2] = Petri Dish Run 2 at Day 11, treatment Day 0, mean of repetitions
[3] = Petri Dish Run 2 at Day 11, treatment Day 3, mean of repetitions
[4] = Petri Dish Run 2 at Day 11, treatment Day 7, mean of repetitions
[5] = treatment Day 0, day 8, mean of Run1 and Run2 repetitions
[6] = treatment Day 3, day 8, mean of Run1 and Run2 repetitions
[7] = treatment Day 7, day 8, mean of Run1 and Run2 repetitions

Molecule	%_Germ—14DAP ([1]; treatment Day 0) [%]	%_Germ—14DAP ([1]; treatment Day 3) [%]	%_Germ—14DAP ([1]; treatment Day 7) [%]	Day 8% Germ Mean [1, 2] [%]	Day 8% Germ Mean [1, 3] [%]	Day 8% Germ Mean [1, 4] [%]	Day 8% Germ Mean [1, 5] [%]	Day 8% Germ Mean [1, 6] [%]	Day 8% Germ Mean [1, 7] [%]	also measured
Pseudomonas fluorescens strain D7	58.33	83.33	75.00	56.67	76.67	73.33	31.67	73.33	65.00	effect on germination (Tall Fescue): did not affect germination; effect on germination (Kentucky Bluegrass): did not affect germination; %_Germ11DAP ([1]; treatment Day 0, listed as D7 Alone): 60% and 50%; %_Germ11DAP ([1]; treatment Day 3, listed as D7 Alone): 100% and 60% and 70%; %_Germ11DAP ([1]; treatment Day 7, listed as D7 Alone): 90% and 60% and 70%; influence of application time on germination outcomes ([1]; application 0, 3 or 7 days after planting): early application being the most effective; %_Germ_8DAP ([1]; treatment Day 3): 83.33% and 100.0% and 60.0% and 50.0%; %_Germ_8DAP ([1]; treatment Day 7): 50.00% and 80.0% and 60.0% and 70.0%
CC1=CC1 [1-MCP, 1-methylcyclopropene, reference compound]	75.00	25.00	100.00	86.67	83.33	83.33	81.25	61.25	75.83	%_Germ11DAP ([1]; treatment Day 0, listed as 1-MCP alone): 80% and 90%; %_Germ11DAP ([1]; treatment Day 3, listed as 1-MCP alone): 80% and 90%; %_Germ11DAP ([1]; treatment Day 7, listed as 1-MCP alone): 100% and 70% and 80%; %_Germ_8DAP ([1]; treatment Day 0, listed as MCP): 75.00% and 80.0% and 90.0%; %_Germ_8DAP ([1]; treatment Day 7, listed as MCP): 83.33% and 90.0% and 60.0% and 70.0%
